Test results from PMC12508156, “Non-canonical dihydrolipoyl transacetylase promotes chemotherapy resistance via mitochondrial tetrahydrofolate signaling” (Nature Communications, 2025).
Several values for one entry are separate records, joined by “and”; a condition that tells them apart may be missing. Identical values can stand only once.

What was measured:
RNA synthesis = assay: Global RNA synthesis (5-EU labeling); type: cell-based, human; set-up: unit not given here
Method: Cellular metabolic states were examined through various assays. To gauge the levels of total intracellular or mitochondrial reactive oxygen species (ROS), cells were stained with CM-H2DCFDA or mitoSOX, respectively. Intracellular H2O2, NADPH, acetyl-CoA, and GSH/GSSG ratios were quantified using commercial assay kits as listed in the Reagents. Intracellular ATP levels were determined utilizing the ATP bioluminescent somatic cell assay and normalized to the total protein concentrations. The de novo synthesized RNA and proteins were assessed in cancer cells using commercial assays following the manufacturer’s protocols. In brief, O-propargyl-puromycin or uridine analog, 5-EU, was applied to stop translation or modify RNA. Polypeptides or modified RNA were measured using fluorescent azide with Ex/Em at 494/521 nm. PDC activity was determined by measuring the reduction of NAD+ to NADH during the conversion of pyruvate into acetyl-CoA.

KB-3-1cisR cells [1] = assay: Apoptotic cell death (annexin V/PI staining); type: cell-based, human
[2] = test system: KB-3-1cisR xenograft tumors; assay: KB-3-1cisR xenograft tumor growth (volume, weight); type: in vivo, athymic nu/nu mice; set-up: unit not given here; settings: cisplatin 5 mg/kg i.p. twice a week, endpoint, n=1-8: individual mice, listed as cis
Method: All animal procedures were conducted based on the protocol (DAR-PROTO-201700885) approved by the Emory University Institutional Animal Care and Use Committee. Female athymic nu/nu mice (Hsd:Athymic Nude-Foxn1nu, 6-week-old; Envigo) were housed under specific pathogen-free (SPF) conditions in the Emory University animal facility. […] Mice were subcutaneously injected into the flank with 1 × 10^6 KB-3-1^cisR cells with or without DLAT knockdown. […] Tumors were collected at the experimental endpoint, and tumor proliferation was assessed using Ki-67 IHC staining. The localization, penetration, and efficacy of DMp39 were monitored by assessing the acetyl-[…] levels in tumors and fluorescence imaging analysis using an IVIS imaging system. Drug-induced organ toxicities, including splenomegaly, liver damage, and kidney injury, were monitored by assessing spleen index, alanine transaminase activity, and cystatin C levels in plasma.

H1299 cells = assay: Apoptotic cell death (annexin V/PI staining); type: cell-based, human; settings: cisplatin 5 μg/ml, 48 h, n=1-3: biological replicates
HCT116 cells = assay: Apoptotic cell death (annexin V/PI staining); type: cell-based, human; settings: Supple Fig 6A
Method: (§1) Cell viability was determined using the CellTiter-Glo Luminescent Cell Viability Assay. […] Subsequently, the cells were cultured in complete medium for an additional 10 days, and the resulting colonies were visualized by staining with crystal violet and quantified using ImageJ software. For cell cycle analysis, cells fixed with 70% ethanol were stained with RNase A (100 µg/mL) and propidium iodide (50 μg/ml) for 30 min at 37 °C, and DNA content distribution was measured using flow cytometry (BD Symphony A3) and analyzed with FlowJo software (v10.9). Apoptotic cell death was assessed via FITC-conjugated annexin V and propidium iodide staining.
(§2) Colon cancer cell lines, HCT116 (a) and HT-29 (b), were stably transduced with DLAT shRNA harboring lentivirus, followed by annexin V staining and CellTiter Glo Viability assay. Error bars represent SD and are from 3 independent biological replicates. P values were obtained by one-way ANOVA.
(§3) (1 picture or pasted object on this page, not shown here)

HT-29 cells = assay: Apoptotic cell death (annexin V/PI staining); type: cell-based, human; settings: Supple Fig 6B
Method: as §1, §2, §3

A549cisR cells = settings: read-out: cisplatin IC50; A549cisR cells generated by continuous exposure to cisplatin; cited from earlier work
Method: (§4) The RNAi library contains 328 shRNA clones, and each gene was targeted by 2 ~ 8 clones (Fig. 1a). Eleven genes, including DLAT, were selected as unexplored lead hits with cisplatin-sensitizing potential and were further evaluated in A549^cisR, H1299, and KB-3-1^cisR, and two acetyltrans ... || HCT116 and HT-29 colon cancer cell lines, MDA-MB231, HeLa, 293T, and KB-3-1^cisR cells were cultured in Dulbecco Modified Eagle Medium (DMEM). The PCI-37B and FaDu cell lines was maintained in DMEM/Ham’s F-12 50/50 mix medium. […] All media contained 100 U/ml penicillin and 100 μg/ml of streptomycin, supplemented with 10% fetal bovine serum. The identity of KB-3-1 and PCI-37B cells were described previously[45],[58],[59]. All other cell lines were from the American Type Culture Collection (ATCC). KB-3-1^cisR and A549^cisR cells w ...

KB-3-1cisR cells [3] = settings: read-out: cisplatin IC50; KB-3-1cisR cells generated by continuous exposure to cisplatin; cited from earlier work
Method: as §4

N.N.[Cl][Pt][Cl] [cisplatin]
Global RNA synthase (RNA synthesis; A549cisR, pLKO.1, n=1 (Figure 3B)): 35.2
Global RNA synthase (RNA synthesis; A549cisR, pLKO.1, n=2 (Figure 3B)): 34.2
Global RNA synthase (RNA synthesis; A549cisR, pLKO.1, n=3 (Figure 3B)): 34.8
Global RNA synthase (RNA synthesis; A549cisR, shDLAT, n=1 (Figure 3B)): 36.6
Global RNA synthase (RNA synthesis; A549cisR, shDLAT, n=2 (Figure 3B)): 34
Global RNA synthase (RNA synthesis; A549cisR, shDLAT, n=3 (Figure 3B)): 33
Global RNA synthase (RNA synthesis; KB-3-1cisR, pLKO.1, n=1 (Figure 3B)): 34.8
Global RNA synthase (RNA synthesis; KB-3-1cisR, pLKO.1, n=2 (Figure 3B)): 33.4
Global RNA synthase (RNA synthesis; KB-3-1cisR, pLKO.1, n=3 (Figure 3B)): 32.4
Global RNA synthase (RNA synthesis; KB-3-1cisR, shDLAT, n=1 (Figure 3B)): 33.6
Global RNA synthase (RNA synthesis; KB-3-1cisR, shDLAT, n=2 (Figure 3B)): 31.4
Global RNA synthase (RNA synthesis; KB-3-1cisR, shDLAT, n=3 (Figure 3B)): 31.6
Apoptotic death (KB-3-1cisR cells [1]; KB-3-1cisR pLKO.1+pLHCX, cisplatin 5 μg/ml, 48 h, n=1-4: biological replicates, listed as cis): 8.39 and 8.75 and 8.86 and 8.83
Apoptotic death (KB-3-1cisR cells [1]; KB-3-1cisR shDLAT+DLAT(WT) rescue, cisplatin 5 μg/ml, 48 h, n=1-4: biological replicates, listed as cis): 6.91 and 7.48 and 7.23
Apoptotic death (KB-3-1cisR cells [1]; KB-3-1cisR, KQ, sheet Figure 6E, replicate n=3): 10
Apoptotic death (KB-3-1cisR cells [1]; KB-3-1cisR, shDLAT, sheet Figure 5F, replicate n=1): 63.6
Apoptotic death (KB-3-1cisR cells [1]; KB-3-1cisR, shDLAT, sheet Figure 5F, replicate n=2): 64.3
Tumor weight ([2]; KB-3-1cisR pLKO.1 xenograft): 0.88 and 0.77 and 0.52 and 1.65 and 1.63 and 1.39 and 1.43 and 1.01
Tumor weight ([2]; KB-3-1cisR shDLAT #1 xenograft): 0.29 and 0.41 and 0.58 and 0.1 and 0.06 and 0.15 and 0.16 and 0.23
Tumor weight ([2]; KB-3-1cisR shDLAT #2 xenograft): 0.63 and 0.5 and 0.66 and 0.02 and 0.08 and 0.19 and 0.34 and 0.36
Apoptotic death (H1299 cells; H1299 pLKO.1): 12.41
Apoptotic death (H1299 cells; H1299 shDLAT #1): 23.45 and 22.74
Apoptotic death (H1299 cells; H1299 shDLAT #2): 18.43
Apoptotic death (HCT116 cells; HCT116, pLKO.1 control cells + cis, replicate n=2): 17.9
Apoptotic death (HCT116 cells; HCT116, shDLAT cells + cis, replicate n=2): 15.5
Apoptotic death (HCT116 cells; HCT116, shDLAT cells + cis, replicate n=3): 18.3
Apoptotic death (HT-29 cells; HT-29, pLKO.1 control cells + cis, replicate n=2): 20
Apoptotic death (HT-29 cells; HT-29, pLKO.1 control cells + cis, replicate n=3): 20.2
Apoptotic death (HT-29 cells; HT-29, shDLAT cells + cis, replicate n=1): 20.2
Apoptotic death (HT-29 cells; HT-29, shDLAT cells + cis, replicate n=2): 22.2
Apoptotic death (HT-29 cells; HT-29, shDLAT cells + cis, replicate n=3): 22.9
IC50 (A549cisR cells): 17.6 µM
IC50 (KB-3-1cisR cells [3]): 60.5 µM
